# Reference: ChEMBL document CHEMBL5532666 (J Med Chem, 2024)
# Activity calls are given as the source filed them. The calls are words filed in the database; no cut-off is given here.
# Tests used:
# [1] = target: T1, Serine/threonine-protein kinase 24 (Homo sapiens, UniProt Q9Y6E0); experiment: Binding affinity to C-terminal full length human MST3 expressed in permeabilized HEK293T cells incubated for 2 hrs by NanoBRET assay; assay type: cell-based
# Target sequence in this assay (Q9Y6E0 whole entry): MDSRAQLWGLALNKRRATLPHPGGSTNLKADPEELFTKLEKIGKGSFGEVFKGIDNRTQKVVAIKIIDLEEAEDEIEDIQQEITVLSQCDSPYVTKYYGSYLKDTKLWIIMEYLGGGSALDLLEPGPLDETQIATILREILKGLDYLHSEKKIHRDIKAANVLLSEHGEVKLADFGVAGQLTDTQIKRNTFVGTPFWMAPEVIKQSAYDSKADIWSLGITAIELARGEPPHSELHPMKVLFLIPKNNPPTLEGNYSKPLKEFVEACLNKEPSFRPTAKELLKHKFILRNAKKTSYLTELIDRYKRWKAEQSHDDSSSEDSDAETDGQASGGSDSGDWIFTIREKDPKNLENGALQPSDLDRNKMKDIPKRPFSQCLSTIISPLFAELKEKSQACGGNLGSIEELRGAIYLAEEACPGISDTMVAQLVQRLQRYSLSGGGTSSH
# [2] = target: T2, Serine/threonine-protein kinase 26 (Homo sapiens, UniProt Q9P289); experiment: Binding affinity to C-terminal full length human MST4 expressed in permeabilized HEK293T cells incubated for 2 hrs by NanoBRET assay; assay type: cell-based
# Target sequence in this assay (Q9P289 whole entry): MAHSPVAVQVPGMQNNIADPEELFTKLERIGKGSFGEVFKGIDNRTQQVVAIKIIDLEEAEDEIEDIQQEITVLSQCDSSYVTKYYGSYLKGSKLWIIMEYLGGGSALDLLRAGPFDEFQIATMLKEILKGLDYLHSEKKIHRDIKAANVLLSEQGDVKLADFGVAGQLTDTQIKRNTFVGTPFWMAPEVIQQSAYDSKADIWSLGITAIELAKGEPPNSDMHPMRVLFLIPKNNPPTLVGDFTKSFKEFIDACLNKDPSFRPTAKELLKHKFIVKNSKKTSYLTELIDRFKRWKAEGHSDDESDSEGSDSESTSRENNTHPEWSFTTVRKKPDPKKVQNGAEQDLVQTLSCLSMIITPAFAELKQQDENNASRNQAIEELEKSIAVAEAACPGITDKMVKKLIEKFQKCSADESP
# [3] = target: T1, Serine/threonine-protein kinase 24; experiment: Binding affinity to C-terminal full length human MST3 expressed in intact HEK293T cells incubated for 2 hrs by NanoBRET assay; assay type: cell-based
# Target sequence in this assay (Q9Y6E0 whole entry): as the sequence (Q9Y6E0 whole entry) above
# [4] = target: T2, Serine/threonine-protein kinase 26; experiment: Binding affinity to C-terminal full length human MST4 expressed in intact HEK293T cells incubated for 2 hrs by NanoBRET assay; assay type: cell-based
# Target sequence in this assay (Q9P289 whole entry): as the sequence (Q9P289 whole entry) above
# [5] = target: T2, Serine/threonine-protein kinase 26; details: dose 10.0 µM
# Target sequence in this assay (Q9P289 2-416 limits assumed): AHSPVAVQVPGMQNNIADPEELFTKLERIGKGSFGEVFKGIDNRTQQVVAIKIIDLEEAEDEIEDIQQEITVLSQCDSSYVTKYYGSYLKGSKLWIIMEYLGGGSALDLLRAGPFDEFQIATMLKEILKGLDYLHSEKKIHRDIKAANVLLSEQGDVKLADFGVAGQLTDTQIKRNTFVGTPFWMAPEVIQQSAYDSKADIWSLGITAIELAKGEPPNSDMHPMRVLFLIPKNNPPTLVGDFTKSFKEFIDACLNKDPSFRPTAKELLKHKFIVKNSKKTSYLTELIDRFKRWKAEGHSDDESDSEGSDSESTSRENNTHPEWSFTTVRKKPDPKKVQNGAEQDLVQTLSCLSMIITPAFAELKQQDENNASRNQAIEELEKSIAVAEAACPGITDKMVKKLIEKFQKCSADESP
# Description: Binding affinity to recombinant MST4 (unknown origin) kinase domain assessed as thermal stabilization by measuring change in melting temperature at 10 uM by DSF analysis
# [6] = target: T1, Serine/threonine-protein kinase 24; details: dose 10.0 µM
# Target sequence in this assay (Q9Y6E0 whole entry, looked up): as the sequence (Q9Y6E0 whole entry) above
# Description: Binding affinity to recombinant MST3 (unknown origin) kinase domain assessed as thermal stabilization by measuring change in melting temperature at 10 uM by DSF analysis
# [7] = target: T3, Serine/threonine-protein kinase 3 (Homo sapiens, UniProt Q13188); experiment: Binding affinity to N-terminal full length human MST2 expressed in intact HEK293T cells incubated for 2 hrs by NanoBRET assay; assay type: cell-based
# T3 sequence (Q13188 whole entry): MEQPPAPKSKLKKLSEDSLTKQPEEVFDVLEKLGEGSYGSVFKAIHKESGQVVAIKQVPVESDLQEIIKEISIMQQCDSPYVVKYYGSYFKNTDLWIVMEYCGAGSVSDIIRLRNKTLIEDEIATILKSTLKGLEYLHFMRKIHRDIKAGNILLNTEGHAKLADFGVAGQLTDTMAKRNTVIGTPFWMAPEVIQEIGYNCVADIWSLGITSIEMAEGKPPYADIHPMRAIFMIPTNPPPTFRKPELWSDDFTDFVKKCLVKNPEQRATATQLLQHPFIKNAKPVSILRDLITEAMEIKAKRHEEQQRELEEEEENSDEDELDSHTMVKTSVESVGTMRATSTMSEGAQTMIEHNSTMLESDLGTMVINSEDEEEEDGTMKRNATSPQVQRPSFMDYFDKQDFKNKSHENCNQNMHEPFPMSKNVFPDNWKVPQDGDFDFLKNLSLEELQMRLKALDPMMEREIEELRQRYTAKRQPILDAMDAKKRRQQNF
# [8] = target: T4, Serine/threonine-protein kinase 3 (Homo sapiens) (UniProt Q13188); details: dose 10.0 µM
# T4 sequence (whole entry): T3 sequence (Q13188 whole entry)
# Description: Binding affinity to recombinant MST2 (unknown origin) kinase domain assessed as thermal stabilization by measuring change in melting temperature at 10 uM by DSF analysis
# [9] = target: T5, Serine/threonine-protein kinase 4 (Homo sapiens) (UniProt Q13043); details: dose 10.0 µM
# T5 sequence (whole entry): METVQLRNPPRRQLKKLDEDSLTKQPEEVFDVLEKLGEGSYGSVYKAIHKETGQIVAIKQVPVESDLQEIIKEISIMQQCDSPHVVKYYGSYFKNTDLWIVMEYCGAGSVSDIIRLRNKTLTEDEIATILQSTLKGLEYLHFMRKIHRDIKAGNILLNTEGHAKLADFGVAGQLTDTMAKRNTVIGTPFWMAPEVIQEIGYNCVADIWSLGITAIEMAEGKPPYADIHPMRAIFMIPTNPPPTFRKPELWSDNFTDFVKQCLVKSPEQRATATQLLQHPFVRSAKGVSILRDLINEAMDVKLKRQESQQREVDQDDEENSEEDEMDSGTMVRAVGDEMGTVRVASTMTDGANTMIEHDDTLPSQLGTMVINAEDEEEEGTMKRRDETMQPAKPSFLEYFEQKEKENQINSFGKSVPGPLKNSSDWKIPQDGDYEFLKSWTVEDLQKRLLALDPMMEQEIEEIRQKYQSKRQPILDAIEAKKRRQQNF
# Description: Binding affinity to recombinant MST1 (unknown origin) kinase domain assessed as thermal stabilization by measuring change in melting temperature at 10 uM by DSF analysis
# [10] = target: T6, Serine/threonine-protein kinase 4 (Homo sapiens, UniProt Q13043); experiment: Binding affinity to N-terminal full length human MST1 expressed in intact HEK293T cells incubated for 2 hrs by NanoBRET assay; assay type: cell-based
# T6 sequence (Q13043 whole entry): T5 sequence (whole entry)
# [11] = target: Glycogen synthase kinase-3 beta (Homo sapiens) (UniProt P49841); experiment: Binding affinity to GSK3B (unknown origin) assessed as thermal stabilization by measuring change in melting temperature by DSF analysis
# Glycogen synthase kinase-3 beta (Homo sapiens), sequence (P49841 whole entry, looked up): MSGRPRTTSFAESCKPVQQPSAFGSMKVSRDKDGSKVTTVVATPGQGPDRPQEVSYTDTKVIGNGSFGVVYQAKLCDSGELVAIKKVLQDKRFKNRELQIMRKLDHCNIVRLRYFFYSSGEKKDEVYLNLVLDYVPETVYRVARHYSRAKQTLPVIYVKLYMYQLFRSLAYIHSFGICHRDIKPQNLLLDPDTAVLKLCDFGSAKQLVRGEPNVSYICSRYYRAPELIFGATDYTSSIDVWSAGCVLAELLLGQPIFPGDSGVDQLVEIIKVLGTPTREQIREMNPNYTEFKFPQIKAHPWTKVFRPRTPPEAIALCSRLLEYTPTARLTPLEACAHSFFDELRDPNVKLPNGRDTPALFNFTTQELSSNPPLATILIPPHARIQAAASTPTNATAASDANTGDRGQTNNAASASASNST
# [12] = test system: HCT-116; experiment: Cell cycle arrest in human HCT-116 cells expressing […] assessed as S phase cells at 10 uM incubated for 72 hrs by Hoechst33342 staining based analysis relative to control; assay type: functional
# [13] = test system: HCT-116; experiment: Cell cycle arrest in human HCT-116 cells expressing […] assessed as G2/M phase cells at 1 uM incubated for 72 hrs by Hoechst33342 staining based analysis (reference value: 38%); assay type: functional
# [14] = test system: HCT-116; experiment: Cell cycle arrest in human HCT-116 cells expressing […] assessed as G1 phase cells at 1 uM incubated for 72 hrs by Hoechst33342 staining based analysis (reference value: 52%); assay type: functional
# [15] = test system: HCT-116; experiment: Cell cycle arrest in human HCT-116 cells expressing […] assessed as G1 phase cells at 10 uM incubated for 72 hrs by Hoechst33342 staining based analysis (reference value: 52%); assay type: functional
# [16] = test system: HCT-116; experiment: Cell cycle arrest in human HCT-116 cells expressing […] assessed as G2/M phase cells at 10 uM incubated for 72 hrs by Hoechst33342 staining based analysis (reference value: 38%); assay type: functional
# [17] = target: T4, Serine/threonine-protein kinase 3 (Homo sapiens); experiment: Binding affinity to MST2 (unknown origin) assessed as residual activity at 10 uM relative to control
# [18] = target: T5, Serine/threonine-protein kinase 4 (Homo sapiens); experiment: Binding affinity to MST1 (unknown origin) assessed as residual activity at 10 uM relative to control
# [19] = test system: HCT-116; experiment: Cell cycle arrest in human HCT-116 cells expressing […] assessed as S phase cells at 1 uM incubated for 72 hrs by Hoechst33342 staining based analysis relative to control; assay type: functional
# [20] = target: T2, Serine/threonine-protein kinase 26; experiment: Binding affinity to MST4 (unknown origin) assessed as residual activity at 10 uM relative to control
# Target sequence in this assay (Q9P289 2-416 limits assumed): as the sequence (Q9P289 2-416 limits assumed) above
# [21] = Toxicity in human HCT-116 cells expressing FUCCI assessed as decrease in normalized cell count at 1 to 10 uM measured after 72 hrs by Hoechst33342 staining based analysis relative to control; design: scale not given: the % may be the effect or the level left; details: hct-116, 72 h, dose 1-10 µM
Compound,EC50 [1],EC50 [2],EC50 [3],EC50 [4],ΔTm [5],ΔTm [6],EC50 [7],ΔTm [8],ΔTm [9],EC50 [10],also measured
O=C1NCCc2ccc(cc2)Nc2ncc(Cl)c(n2)Nc2cc1[nH]n2,5.17 µM,7.61 µM,4.97 µM,6.71 µM,0.7 °C,1.2 °C,9.96 µM,0.7 °C,0.3 °C,11.8 µM,
O=C1NCCCCCCNc2nc(c3ccccc3n2)Nc2cc1[nH]n2,0.45 µM,1.26 µM,1.75 µM,,4 °C,3.7 °C,40.1 µM,0.4 °C,0.7 °C,> 50 µM,ΔTm [11]: > 5 °C
CNC(=O)c1nn(C)c2c1C(C)(C)Cc1cnc(Nc3ccc(N4CCN(C)CC4)cc3)nc1-2 [MILCICLIB],,,,,,,,,,,Activity [12]: 16%; Activity [13]: 19%; Activity [14]: 72%; Activity [15]: 63%; Activity [16]: 21%
Cc1cnc2nc1Nc1cc([nH]n1)C(=O)NCCc1ccc(cc1)N2,38.3 µM,> 50 µM,37 µM,38.8 µM,2.3 °C,0.5 °C,> 50 µM,0.2 °C,1 °C,> 50 µM,
N#CCc1ccc(Nc2nccc(Nc3cc(C4CC4)[nH]n3)n2)cc1,,,6.54 µM,4.84 µM,7.1 °C,9.3 °C,,11.6 °C,9.6 °C,,Activity [17]: 0.15%; Activity [18]: 0.15%; Activity [19]: 18%; Activity [12]: 16%; Activity [20]: 0.15%; Activity [21]: < 50%; Activity [13]: 30%; Activity [14]: 52%; Activity [15]: 42%; Activity [16]: 42%
O=C1NCCCCCCNc2ncc(Cl)c(n2)Nc2cc1[nH]n2,21.9 µM,45 µM,> 50 µM,> 50 µM,2.1 °C,0.3 °C,> 50 µM,1 °C,1.5 °C,> 50 µM,
O=C1NCCCCCNc2ncc(Cl)c(n2)Nc2cc1[nH]n2,2.67 µM,7.76 µM,40.3 µM,> 50 µM,1.6 °C,2.7 °C,10.1 µM,2.8 °C,2.5 °C,9.74 µM,
O=C1NCCc2cccc(c2)Nc2nc(c3ccccc3n2)Nc2cc1[nH]n2,0.92 µM,2.44 µM,6.51 µM,11.8 µM,4 °C,3.9 °C,13 µM,1.3 °C,1.7 °C,13.7 µM,
O=C1NCCc2cccc(c2)Nc2ncc(Cl)c(n2)Nc2cc1[nH]n2,8.53 µM,10.3 µM,14.1 µM,10.2 µM,0.6 °C,2.9 °C,7.54 µM,1.7 °C,0.8 °C,7.84 µM,
O=C1NCCc2ccc(cc2)Nc2nc(c3ccccc3n2)Nc2cc1[nH]n2,1.46 µM,2.75 µM,4.45 µM,17.5 µM,4.7 °C,3.3 °C,28.3 µM,2.3 °C,1 °C,28.6 µM,
O=C1NCCOCCNc2nc(c3ccccc3n2)Nc2cc1[nH]n2,1.23 µM,4.3 µM,4.49 µM,37.6 µM,2.5 °C,2.5 °C,> 50 µM,0.5 °C,0.6 °C,> 50 µM,Activity [11]: inactive
O=C1NCCOCCNc2ncc(Cl)c(n2)Nc2cc1[nH]n2,17.7 µM,41.8 µM,> 50 µM,> 50 µM,2.8 °C,0.6 °C,> 50 µM,0.6 °C,1.1 °C,> 50 µM,
